Structures can show the parent of a compound that is named as a salt. Where two headings read alike, the source gives them in different places.
Experiments:
[1] = capillary depletion analysis after in situ brain perfusion; type: in vivo, mouse; settings: male, BALB/c, mouse, 5ml/min; for Kp at 10 min, 62.5 nM / Kp at 30 min, 62.5 nM: other: in situ brain perfusion, Balb/c ♂; for Kp at 10 min, 62.5 nM: CONTROL; for Kp at […]: 2.5 mins
Protocol: The microvasculature within a sample of brain tissue can be separated from the brain parenchyma using capillary depletion analysis. Following perfusion, the remaining brain tissue after microdissection of the regions described above (typically 200–300 mg) underwent capillary depletion following a method modified for mouse. […]

[2] = pH 7.4
Protocol: The lipophilicity of the radiolabelled test molecules was also measured by means of an octanol:saline partition coefficient. […] Centrifugation separated the hydrophobic (octanol) phase and hydrophilic (saline) phase and 100 μL samples in triplicate were taken for radioactive liquid scintillation counting on a Tricarb 2900TR liquid scintillation counter (Perkin-Elmer; Boston, MA, USA). The partition coefficient was calculated as the ratio of radioactivity in the octanol phase to the radioactivity in the aqueous phase.

[3] = self-inhibition, in situ perfusion: [^3H]-ADMA with 100 μM unlabelled ADMA; type: in vivo, mouse; settings: male, BALB/c, mouse, other: in situ brain perfusion, with unlabelled ADMA 100 µM, 10 mins, Balb/c ♂, 5ml/min
Protocol: (§1) Self-inhibition experiments were also performed. […] Cross-competition experiments were also performed.
(§2) The percentage change in the RTissue uptake values achieved in the absence or presence of an unlabelled inhibitor can be calculated by means of Eq 4.
(§3) %change=RTissue−RInhibition/RTissue×100 Eq 4
(§4) We define RInhibition as the RTissue uptake in the presence of an inhibitor in the artificial plasma.
(§5) A decrease in the uptake of radiolabelled solute in the presence of unlabelled inhibitor is indicative of a saturable influx transport system. Conversely, an increase in the uptake of radiolabelled solute in the presence of unlabelled inhibitor is indicative of a saturable efflux transport system.

[4] = tested on: [^3H]-ADMA transport across the blood-brain and blood-CSF barriers; assay: as above; type: in vivo, mouse; settings: 100 μM unlabelled ADMA; CSF; 10 minutes; not statistically significant, n of 2
Protocol: as §1, §2, §3, §4, §5

[5] = tested on: human dermal microvascular endothelial cells; settings: cited from earlier work
[6] = endothelial cell-enriched pellet (capillary depletion), Difference (ADMA minus Sucrose), pellet, mean
[7] = endothelial cell-enriched pellet (capillary depletion), [3H] ADMA and [14C] Sucrose uptake, pellet, mean
[8] = whole-brain homogenate (capillary depletion), Difference (ADMA minus Sucrose), homogenate, mean
[9] = whole-brain homogenate (capillary depletion), [3H] ADMA and [14C] Sucrose uptake, homogenate, mean

CN(C)C(N)=NCCC[C@H](N)C(=O)O [ADMA, N^G,N^G-dimethylarginine dihydrochloride] gave a Kp at 10 min, 62.5 nM ([1]; capillary depletion supernatant (brain parenchyma), Difference (ADMA minus Sucrose), supernatant, mean) of 0.0862, a Kp at 30 min, 62.5 nM ([1]; capillary depletion supernatant (brain parenchyma), [3H] ADMA + [14C] Sucrose, mean, read-out: uptake, supernatant) of 0.0993 and a Kp at 10 min, 62.5 nM ([1]; capillary depletion supernatant (brain parenchyma), [3H] ADMA and [14C] Sucrose uptake, supernatant, individual mouse) of 0.119. It also gave a Kp at 10 min, 62.5 nM ([1]; capillary depletion supernatant (brain parenchyma), [3H] ADMA and [14C] Sucrose uptake, supernatant, mean) of 0.138, a Kp at […] ([1]; endothelial cell-enriched pellet (capillary depletion), Difference (ADMA minus Sucrose), pellet, individual mouse) of 0.0108 and a Kp at […] [1, 6] of 0.0108. For the same compound, the Kp at […] ([1]; endothelial cell-enriched pellet (capillary depletion), [3H] ADMA and [14C] Sucrose uptake, pellet, individual mouse) was 0.0124, the Kp at […] [1, 7] was 0.0131 and the Kp at 30 min, 62.5 nM ([1]; endothelial cell-enriched pellet (capillary depletion), Difference (ADMA minus Sucrose), pellet, individual mice) was 0.0153. The Kp at 30 min, 62.5 nM [1, 6] was 0.012, the Kp at 10 min, 62.5 nM [1, 6] was 0.00783 and the Kp at 30 min, 62.5 nM ([1]; endothelial cell-enriched pellet (capillary depletion), [3H] ADMA + [14C] Sucrose, individual mice, read-out: uptake, pellet) was 0.0184. It also gave a Kp at 30 min, 62.5 nM ([1]; endothelial cell-enriched pellet (capillary depletion), [3H] ADMA + [14C] Sucrose, mean, read-out: uptake, pellet) of 0.0166, a Kp at 10 min, 62.5 nM [1, 7] of 0.0527 and a Kp at […] [1, 8] of 0.0793. For the same compound, the Kp at 20 min, 62.5 nM [1, 8] was 0.208, the Kp at […] [1, 9] was 0.0942 and the Kp at 20 min, 62.5 nM [1, 9] was 0.234. It also gave a Kp at 30 min, 62.5 nM [1, 8] of 0.122, a Kp at 10 min, 62.5 nM ([1]; whole-brain homogenate (capillary depletion), Difference (ADMA minus Sucrose), homogenate, individual mouse) of 0.136 and a Kp at 10 min, 62.5 nM [1, 8] of 0.127. It also gave a Kp at 30 min, 62.5 nM ([1]; whole-brain homogenate (capillary depletion), [3H] ADMA + [14C] Sucrose, mean, read-out: uptake, homogenate) of 0.156, a Kp at 10 min, 62.5 nM [1, 9] of 0.224 and an octanol-saline partition coefficient [2] of 0.00226±0.00006. For the same compound, the Kp at 10 min, 62.5 nM ([3]; caudate nucleus, Difference (ADMA minus Sucrose), caudate nucleus, + 100uM un-labelled ADMA, mean) was 0.0707, the Kp at 10 min, 62.5 nM ([3]; caudate nucleus, [3H] ADMA + [14C] Sucrose + 100uM un-labelled ADMA, mean, read-out: uptake into caudate nucleus) was 0.102 and the Kp at 10 min, 62.5 nM ([3]; choroid plexus, Difference (ADMA minus Sucrose), choroid plexus, + 100uM un-labelled ADMA, individual mice) was 0.47. The Kp at 10 min, 62.5 nM ([3]; choroid plexus, Difference (ADMA minus Sucrose), choroid plexus, + 100uM un-labelled ADMA, mean) was 0.458, the Kp at 10 min, 62.5 nM ([3]; choroid plexus, [3H] ADMA + [14C] Sucrose + 100uM un-labelled ADMA, individual mice, read-out: uptake into choroid plexus) was 0.617 and the Kp at 10 min, 62.5 nM ([3]; choroid plexus, [3H] ADMA + [14C] Sucrose + 100uM un-labelled ADMA, mean, read-out: uptake into choroid plexus) was 0.627. It also gave a Kp at 10 min, 62.5 nM ([3]; frontal cortex, Difference (ADMA minus Sucrose), frontal cortex, + 100uM un-labelled ADMA, mean) of 0.0696, a Kp at 10 min, 62.5 nM ([3]; frontal cortex, [3H] ADMA + [14C] Sucrose + 100uM un-labelled ADMA, mean, read-out: uptake into frontal cortex) of 0.101 and a Kp at 10 min, 62.5 nM ([3]; hippocampus, Difference (ADMA minus Sucrose), hippocampus, + 100uM un-labelled ADMA, mean) of 0.056. It also gave a Kp at 10 min, 62.5 nM ([3]; hippocampus, [3H] ADMA + [14C] Sucrose + 100uM un-labelled ADMA, mean, read-out: uptake into hippocampus) of 0.0817, a Kp at 10 min, 62.5 nM ([3]; occipital cortex, Difference (ADMA minus Sucrose), occipital cortex, + 100uM un-labelled ADMA, individual mice) of 0.0613 and a Kp at 10 min, 62.5 nM ([3]; occipital cortex, Difference (ADMA minus Sucrose), occipital cortex, + 100uM un-labelled ADMA, mean) of 0.0767. The Kp at 10 min, 62.5 nM ([3]; occipital cortex, [3H] ADMA + [14C] Sucrose + 100uM un-labelled ADMA, individual mice, read-out: uptake into occipital cortex) was 0.0898, the Kp at 10 min, 62.5 nM ([3]; occipital cortex, [3H] ADMA + [14C] Sucrose + 100uM un-labelled ADMA, mean, read-out: uptake into occipital cortex) was 0.107 and the Kp at 10 min, 62.5 nM ([3]; pineal gland, Difference (ADMA minus Sucrose), pineal gland, + 100uM un-labelled ADMA, mean) was 3.33. The Kp at 10 min, 62.5 nM ([3]; pineal gland, [3H] ADMA + [14C] Sucrose + 100uM un-labelled ADMA, mean, read-out: uptake into pineal gland) was 3.5, the “reduction of [^3H]-ADMA uptake” value [4] was 89.1% and the “effect on [^3H]-arginine transport” value ([5]; 100 μM unlabelled ADMA) was “significant inhibitory effect”. The “effect on [^3H]-arginine transport” value ([5]; 2.5–10 μM ADMA) was “did not affect”.
